Test results published in patent US20120040956A1, “INHIBITORS OF HIF-1 PROTEIN ACCUMULATION” (INTERMED DISCOVERY GMBH, priority 2008, published 2012).
pIC50: −log10 of the molar value.

What was measured:
HUVEC [1] = experiment: Spheroid-based angiogenesis assay, VEGF-A induced HUVEC sprouting; format: cell-based, human
Description: As described in Example 4 HUVEC spheroids were generated, cultivated and embedded in a 3D collagen gel and stimulated with Vascular Endothelial Growth Factor alpha [VEGF-A; 25 ng/ml] instead of deferoxamine. Cell spheroids were treated for 24 h with different concentrations of IMD-026259; IMD-026260; Sutent® (Sunitinib) and Sorafenib (Nexavar®) (in Molar [M], as indicated in Table 4; see also FIG. 14A).
The cumulative sprout length of 10 randomly selected spheroids per data point was analyzed and the relative inhibition by the test compound determined. Fitting of IC50 curves and calculation of IC50 values was performed with GraphPad Prism® 5.01 (trademarked by GraphPad Software Inc.). […] Results from the examples described above are summarized in FIG. 14b IC50 values are given in nM for in vitro angiogenesis (HUVEC sprouting) studies after hypoxic or VEGF induction.

HUVEC [2] = experiment: Spheroid-based angiogenesis assay, Deferoxamine (hypoxia) induced HUVEC sprouting; format: cell-based, human
Description: Prior application the stock solution [100 mM] of IMD-019064 was diluted 1:10 in DMSO and serially diluted in half logarithmic steps covering the concentration range from 10 mM to 1 μM using 100% DMSO. The final assay concentration ranged from 100 μM to 10 nM with a final DMSO concentration in the assay of 1%. The experiments were pursued in modification of the originally published protocol (Korff and Augustin: J Cell Sci 112: 3249-58, 1999). In brief, spheroids were prepared as described by Korff and Augustin: J Cell Biol 143: 1341-52, 1998) by pipetting 500 endothelial cells (EC) in a hanging drop on plastic dishes to allow overnight spheroid aggregation. 50 EC spheroids were then embedded in 0.9 ml of a 3D collagen matrix and pipetted into individual wells of a 24 well plate to allow polymerization.
Plates were incubated at 37° C. for 24 hours and fixed by adding 4% paraformaldehyde. The cumulative sprout length of 10 randomly selected spheroids per data point was analyzed and the relative inhibition by the test compound determined. Fitting of IC50 curves and calculation of IC50 values was performed with GraphPad Prism 5.01. Sprouting intensity of EC and fibroblast spheroids was quantitated by an image analysis system using an inverted microscope and the digital imaging software Analysis 3.2 (Soft imaging system, Munster, Germany). In parallel NHDF (fibroblast) spheroids were embedded in a 3D collagen gel and treated for 24 h with different concentrations of IMD-019064. The cumulative sprout length of 10 randomly selected spheroids per data point was analyzed according to the procedure used for the HUVEC experiment.
The same assays were performed with IMD-026260; IMD-026259; Sutent® (Sunitinib) and Sorafenib (Nexavar®) (see Table 3 for final compound concentrations).

[3] = tested on: PDK1 (pyruvate dehydrogenase kinase1); experiment: HIF-1 target gene PDK1 expression in 293T cells by real-time PCR; format: cell-based; conditions: Homo sapiens, HEK-293T, 1 h pretreatment, 8 h hypoxia, read-out: IC50, suppression of endogenous PDK1 gene expression
Description: Human 293T cells were cultivated either under normoxic conditions or under hypoxic conditions (1% oxygen) for 4 and 8 hs respectively. Cells were harvested, followed by the isolation of RNA and the generation of cDNAs from Oligo (dT)20 primers using a Reverse Transcriptase kit. Then gene expression was measured by real-time PCR for the following two selected HIF-1α target genes: LDH-A (lactate dehydrogenase isoform A), and PDK1 (pyruvate dehydrogenase kinase1). Real-time PCR was performed with cDNA using specific primers and the SYBR Green I detection chemistry system (Applied Biosystems), utilizing an ABI Prism 7300 system. Actin was also measured as an internal control. The relative abundance of the different genes was calculated by the comparative CT method. In order to facilitate comparison, gene expression under normoxic conditions was arbitrarily set to 1 for each of the three genes. Two independent experiments confirmed PDK1 as the gene which was induced most prominently compared to LDH.
To investigate the capability of the compounds to inhibit PDK1, 293T cells were pretreated for 1 h with 3 different concentrations of the respective inhibitors (IMD-019064; IMD-026259; and IMD-026260). Subsequently, cells were incubated under normoxic/hypoxic conditions for further 8 h and the expression of PDK1 was quantified by real-time PCR as described above.

HIF-1α mRNA = experiment: Hif-1α mRNA expression by real-time PCR; format: cell-based; conditions: human cells, 250 nM for 3 h, normoxic or hypoxic (45 minutes, 1% O2)
Description: In order to investigate whether the compounds of the invention do exert their HIF-1-1 suppressive action via inhibition of HIF-1-1 transcription the compounds were tested for their effects on HIF-1α mRNA production. In all experiments, human cells were exposed to efficiently blocking concentrations (250 nM) of the test compounds for 3 h. Then cells were further cultivated under normoxic or hypoxic conditions (45 minutes, 1% O2) respectively. Afterwards cell samples were harvested and RNA was extracted. cDNA was synthesized using specific primers and the PE Applied Biosystems Reverse Transcription Reagents. Real-time PCR was performed by using the SYBR Green I detection chemistry (Applied Biosystems) and an ABI Prism 7300 system. The expression of Hif-1α was quantified and results were normalized to Hprt1 and β-Actin (“housekeeping-gene”) expression. The relative abundance of the different genes was calculated by the comparative CT method. HIF-1α transcription of normoxic control cells was arbitrarily set to 1. […] Therefore an effect of IMD-compounds on HIF-1-dependent gene expression seems not to be mediated on HIF-1α transcription (FIG. 5).

## CNCCOc1ccc2c(c1)OC1(c3ccc(Cl)cc3)C(c3ccccc3)CC(O)C21O (stereo not drawn) [IMD-026260, (1,3a,8b)-3a-(4-chlorophenyl)-6-(2-(methylamino)ethoxy)-3-phenyl-2,3,3a,8b-tetrahydro-1H-benzo[d]cyclopenta[b]furan-1,8b-diol]
HUVEC [1]; Homo sapiens, HUVEC, VEGF-A 25 ng/ml, 24 h, read-out: IC50, VEGF-A induced sprouting of HUVEC spheroids
  pIC50: 7.55
HUVEC [1]; after hypoxic or VEGF induction, summary statement
  inhibition of angiogenic sprouting in vitro (HUVEC sprouting): potent inhibitors of angiogenic sprouting in vitro
HUVEC [2]; Homo sapiens, HUVEC, Deferoxamine 100 μM, 24 hours, collagen matrix, read-out: IC50, hypoxia induced EC (HUVEC) sprouting
  pIC50: 7.89
HUVEC [2]; NHDF IC50 versus Deferoxamine-induced HUVEC IC50
  difference in HUVEC and fibroblast sensitivity: greater than thirteen-fold
[3]
  pIC50: 8.10
HIF-1α mRNA
  effect on Hif-1α mRNA production: did not show any effects
